Patent publication US20070270462A1, “8-hydroxyquinoline compounds for treating a polyglutamine (polyQ)-expansion disease” (priority 2005, published 2007)

How the values were obtained:
[1] = tested on: Htt exon1-Q103-egfp; experiment: Fluorescence microscopy of transiently transfected PC12 cells expressing Htt exon1-Q103-egfp; type: cell-based; settings: CQ 4 μM, 48 hours post-transfection
From the text: (§1) PolyQ-htt-GFP fusion constructs, in which the polyglutamine region is encoded by CAA and CAG-containing tandem repeats ([…]) [SEQ ID NO: 1], human polyglutaminen, were obtained from the Hereditary Disease Foundation, Santa Monica, Calif., USA. PC12 and HEK293 cells were maintained in MEM supplemented with 10% v/v FBS, switched to Opti-MEM without serum for 6 hrs during transfection using Lipofectamine 2000 (Invitrogen, Carlsbad, Calif., USA), and returned to serum-containing medium thereafter (up to 48 hours). […] Control cultures received equivalent amounts of DMSO-containing vehicle (<0.1% w/v DMSO, final concentration).
Concordant with this reduction in mutant protein expression, cell survival was improved by CQ in a dose dependent fashion with a half maximal effect at 1-2 μM (FIG. 2b). Cell death began to increase at 8 μM, likely due to dose-dependent toxic effects of CQ.

[2] = tested on: R6/2 mice; experiment: Rotarod performance in R6/2 mice; type: in vivo, mouse; settings: between ninth and eleventh weeks of age, oral CQ 30 mg/kg/day
Experimental: A colony of transgenic mice strain R6/2 that is heterozygous for htt exon1 (containing 145 CAG repeats) was maintained, with founders originating and available from The Jackson Laboratory (Bar Harbor, Me., USA). Male transgenic R6/2 mice were bred with background strain (B6CBAFI/J) females. Genotyping was done according to Hockly et al, Brain Res Bull 61, 469-479, 2003. CQ in water was orally administered to mice at 30 mg/kg/day starting at 3 weeks of age and continued until the mice were deceased or sacrificed for tissues. Littermate R6/2 mice were gavaged with water vehicle alone. […] Blood glucose levels were determined after at least 8 hrs of fasting in 11-week old mice (n=6 for wild-type, n=4 for vehicle-treated R6/2, n=6 for CQ-treated R6/2 littermates) using a 2300 STAT Plus glucose analyzer (YSI, Yellowsonte, Ohio, USA). Fasting blood insulin levels in animals fasted for 8 hrs were measured using an Ultra Sensitive Rat Insulin ELISA Kit (Crystal Chem, Inc., Downers Grove, Ill., USA) according to manufacturer's instructions.
Rotarod performance (n≧6 for each treatment group) was assessed as described by Hockly et al., 2003 Supra with the modification that the SDI Rota-Rod (San Diego Instruments, San Diego, Calif.) was set to linearly increase in speed to 40 rpm in 4 min ramp time. […]

[3] = tested on: aggregated huntingtin; experiment: Western blotting of aggregated huntingtin in whole-brain extracts of R6/2 mice; type: in vivo, mouse; settings: 8 weeks daily oral CQ 30 mg/kg/day
Experimental: CQ in water was orally administered to mice at 30 mg/kg/day starting at 3 weeks of age and continued until the mice were deceased or sacrificed for tissues. Littermate R6/2 mice were gavaged with water vehicle alone. At the end of CQ treatment mice were anesthetized and transcardially perfused with PBS followed by 4% v/v paraformaldehyde.
Whole mouse brains were homogenized in 50 mM Tris-HCl (pH 7.4), 150 mM NaCl, 1% v/v Triton X-100 and complete protease inhibitor cocktail. Brain homogenate was pre-cleared by centrifuging at 7,500 g for 90 s at 4° C. The supernatant was passed through a 28-gauge needle and boiled in SDS sample buffer for 10 min. Fifty μg of total protein was loaded onto 10% w/v SDS gel containing a 4% w/v stacking gel. Monoclonal antibodies anti-polyglutamine (1:2,000), anti-GAPDH (1:10,000), anti-GFP (1:4,000), and anti-Htt (EM48) in 1:1000 dilution were used for immunoblotting. All western blot experiments were performed at least three times and band intensities were averaged.

[4] = tested on: egfp-alone; experiment: Western blotting of cell extracts, egfp-alone expression; type: cell-based
From the text: as §1
HEK293 or PC12 cells were lysed in PBS buffer containing 1% v/v Triton X-100 and protease inhibitor cocktail (Roche, Indianapolis, Ind.), and passed through a 28 gauge needle to ensure the release of Htt inclusions from the nuclei. Whole mouse brains were homogenized in 50 mM Tris-HCl (pH 7.4), 150 mM NaCl, 1% v/v Triton X-100 and complete protease inhibitor cocktail. Brain homogenate was pre-cleared by centrifuging at 7,500 g for 90 s at 4° C. The supernatant was passed through a 28-gauge needle and boiled in SDS sample buffer for 10 min. Fifty μg of total protein was loaded onto 10% w/v SDS gel containing a 4% w/v stacking gel. […]

[5] = tested on: Htt exon1-Q103-egfp mRNA; experiment: Northern analysis of Htt exon1-Q103-egfp mRNA; type: cell-based; settings: Northern analysis after 48 hrs of transfection
Experimental: Trizol reagent (Invitrogen, Carlsbad, Calif.) was used to isolate total RNA. Ten μg of total RNA was electrophoresed through 1.25% w/v agarose gel and transferred onto Hybond N+membrane. The membrane was baked in an 80° C. oven for 15 min and UV-crosslinked. Exon 1 of htt containing 103 CAA/CAG-repeats was used as a probe for northern blot detection according to AlkPhos Direct Labeling and Detection System (Amersham Biosciences, Piscataway, N.J.). One hundred ng of the probe was hybridized to the membrane in a 60° C. rotating hybridization oven overnight. The membrane was scanned using the Typhoon 9410 digital scanner (Amersham Biosciences, Piscataway, N.J.) to yield the signal image. The experiment was performed three times and band intensities were averaged.
In examining potential mechanisms for the effects of CQ on Htt accumulation, we considered the possibilities that CQ might act to inhibit Htt aggregation or directly influence Htt synthesis or degradation. […] Therefore, we focused on the aspects of Htt synthesis and turnover. To determine whether CQ might down-regulate polyQ-Htt expression at the transcriptional level, we examined the amount of Htt^exon1-Q103-egfp mRNA present after 48 hrs of transfection by Northern analysis. […]

Oc1c(I)cc(Cl)c2cccnc12 [CQ, 5-chloro-7-iodo-8-hydroxy-quinoline]
fluorescent product of Htt exon1-Q103-egfp [1]: less fluorescent product
rotarod performance [2]: scored significantly better
reduction in the quantity of aggregated huntingtin [3]: 3.9 fold
inhibition of egfp-alone expression [4]: not observed
effect on Htt exon1-Q103-egfp mRNA levels [5]: no significant effect
